Values of other authors in patent publication US20080293820A1, “METHODS FOR IMPROVING PHYSICAL FUNCTION IN FIBROMYALGIA” (Cypress Bioscience, Inc., priority 2007, published 2008).

System: patients with FMS
Settings: open-label; cited from earlier work

SMILES: COc1ccc(C(CN(C)C)C2(O)CCCCC2)cc1 (centres unmarked) [venlafaxine]
- completing patients with a positive response (50% or greater improvement in two different measurements of overall pain): Six of 11
- insomnia requiring adjunctive medical therapy, completing patients: 3 of 11
